According to patent US20240344145A1, “PHARMACOGENOMICS SCORE TO MAKE DECISIONS ON THERAPY AUGMENTATION IN AML” (University of Florida Research Foundation, Incorporated, priority 2021, published 2024):

Legend:
[1] = tested on: AML patients (1 month to 29.9 years old); conditions: previously reported, cited from earlier work
[2] = tested on: AML patients (1 month to 29.9 years old); test: COG-AAML0531 clinical trial, ADE vs ADE+GO arms: MRD1, EFS and OS overall and by ACS10 score and CD33 SNP; type: in vivo, human; conditions: low ACS10 score
Method: AAML0531 clinical trial enrolled previously untreated AML patients (1 month to 29.9 years old) who were randomized to receive ADE (cytarabine 100 mg/m^2/dose twice per day for […] alongside with daunorubicin and etoposide-equivalent to LDAC arm of St. Jude AML02) with or without the addition of 1 dose in induction 1 and 1 dose in intensification of CD33-targeting drug gemtuzumab ozogamicin (ADE+GO arm). Genotype data on 10 SNPs that were part of the ACS10 score in the discovery cohort was generated in 931 patients (n=465 in standard ADE arm and n=466 in ADE+GO arm). […] In subsequent analysis to check whether ACS10 score has impact on the GO addition, the evaluation of patients from the ADE+GO arm was also considered.
The association of MRD1, EFS, and OS was evaluated with ACS10 scores in the AML02 discovery cohort and the AAML0531 validation cohort. The Kaplan-Meier method was used to estimate the EFS and OS probabilities for well-defined groups of patients. Cox regression models were used to associate ACS10 with EFS and OS and used logistic regression models to associate ACS10 with MRD1. The Wilcoxon rank-sum test and Kruskal-Wallis test were used to compare medians of numeric variables across groups. Chi-square tests and Fisher's exact test were used to evaluate the association among pairs of categorical variables. All p-values are two-sided. […]

gemtuzumab ozogamicin [GO]
benefit from addition of GO to standard chemotherapy ([1]; CD33 rs12459419 CT/TT genotypes, ADE+GO versus ADE): derived no benefit from addition of GO | survival (EFS and DFS) with addition of GO to standard chemotherapy ([1]; CD33 rs12459419 homozygous CC genotype): significantly better survival | benefit from adding GO (EFS and OS) ([2]; CD33 rs12459419 CC genotype): benefit from adding GO | benefit from addition of GO (EFS and OS) ([2]; CT/TT genotype for CD33 rs12459419): do not benefit from addition of GO
